Data taken from US20220395464A1, “ORALLY ADMINISTERED SOLID DOSAGE FORM DRUG” (ASCENTAWITS PHARMACEUTICALS, LTD., priority 2019, published 2022).
Entries after “also recorded” stand apart in the source; their conditions may differ. Like-named read-outs stand apart in the source and are kept apart here.

What was measured:
[1] = Solution stability study of AST-3424 in different solutions (HPLC content); format: physicochemical; settings: for Time the API is stable in solution / Content: room temperature
Procedure: 1.3 Solution Stability Study
About 107.32 mg of AST-3424 (50% v/v, ethanol) was taken and placed in a 50 ml-measuring flask. Then, solvents which are an organic solvent, buffer solution or purified water, were respectively added to a scale mark. At each appointed time, 1 ml of samples was measured for HPLC analysis respectively. If the API was stable in the solution with the different pH values, a sampling appointed time was extended, for instance 5 days or more.
In the solubility study, for a determination of sample contents, 1 ml of culture medium were measured respectively, and then centrifuged at 1000 rpm for 10 minutes. Subnatant after centrifugation were collected respectively for HPLC analysis. In the solution stability study, the samples may be provided directly for HPLC analysis.
The contents were determined by a HPLC method: AST-3424 was used as an external standard for quantification.
A wavelength of UVDAD detector was 230 nm. C18 column was used at a temperature of 25° C.

[2] = system: H460 non-small cell lung cancer; settings: cited from earlier work

In the case of `C[C@H](OP(=O)(N1CC1)N1CC1)c1ccc([N+](=O)[O-])c(Oc2cccc(C(=O)N(C)C)c2)c1` [AST-3424, (S)-1-(3-(3-N,N-Dimethylaminocarbonyl)phenoxy-4-nitrophenyl)-1-ethyl-N,N′-bis(ethylene) phosphoramidate], the “Time the API is stable in solution” value ([1]; 1:1 solution of ethanol and propylene glycol) is reported as “at least 72 hours”, the Content ([1]; Acetate buffer of pH 4.5, 0 h) is reported as 0.673 mg/mL and the Content ([1]; Acetate buffer of pH 4.5, 1 h) is reported as 0.413 mg/mL. For the same compound, the Content ([1]; Acetate buffer of pH 4.5, 4 h) was 0.218 mg/mL, the Content ([1]; Acetate buffer of pH 4.5, 8 h) was 0.093 mg/mL and the Content ([1]; Acetate buffer of pH 4.5, 24 h) was 0.013 mg/mL. It also gave a Content ([1]; Alkaline borate buffer of pH 10.0, 0 h) of 1.265 mg/mL, a Content ([1]; Alkaline borate buffer of pH 10.0, 1 h) of 1.165 mg/mL and a Content ([1]; Alkaline borate buffer of pH 10.0, 4 h) of 1.261 mg/mL. The Content ([1]; Alkaline borate buffer of pH 10.0, 8 h) was 1.258 mg/mL, the Content ([1]; Alkaline borate buffer of pH 10.0, 24 h) was 1.261 mg/mL and the Content ([1]; Alkaline borate buffer of pH 10.0, 48 h) was 1.257 mg/mL. The Content ([1]; Alkaline borate buffer of pH 10.0, 72 h) was 1.242 mg/mL, the Content ([1]; Ethanol/Propylene glycol (50:50, v/v), 0 h) was 1.295 mg/mL and the Content ([1]; Ethanol/Propylene glycol (50:50, v/v), 1 h) was 1.287 mg/mL. It also gave a Content ([1]; Ethanol/Propylene glycol (50:50, v/v), 4 h) of 1.287 mg/mL, a Content ([1]; Ethanol/Propylene glycol (50:50, v/v), 8 h) of 1.287 mg/mL and a Content ([1]; Ethanol/Propylene glycol (50:50, v/v), 24 h) of 1.302 mg/mL. The Content ([1]; Ethanol/Propylene glycol (50:50, v/v), 48 h) was 1.284 mg/mL, the Content ([1]; Ethanol/Propylene glycol (50:50, v/v), 72 h) was 1.275 mg/mL and the Content ([1]; Ethanol, 0 h) was 1.238 mg/mL. For the same compound, the Content ([1]; Ethanol, 1 h) was 1.280 mg/mL, the Content ([1]; Ethanol, 4 h) was 1.246 mg/mL and the Content ([1]; Ethanol, 8 h) was 1.240 mg/mL. The Content ([1]; Ethanol, 24 h) was 1.240 mg/mL, the Content ([1]; Ethanol, 48 h) was 1.278 mg/mL and the Content ([1]; Ethanol, 72 h) was 1.236 mg/mL. For the same compound, the Content ([1]; Phosphate buffer of pH 6.8, 0 h) was 1.202 mg/mL, the Content ([1]; Phosphate buffer of pH 6.8, 1 h) was 1.200 mg/mL and the Content ([1]; Phosphate buffer of pH 6.8, 4 h) was 1.193 mg/mL. The Content ([1]; Phosphate buffer of pH 6.8, 8 h) was 1.185 mg/mL, the Content ([1]; Phosphate buffer of pH 6.8, 24 h) was 1.168 mg/mL and the Content ([1]; Phosphate buffer of pH 6.8, 48 h) was 1.145 mg/mL. The Content ([1]; Phosphate buffer of pH 6.8, 72 h) was 1.102 mg/mL, the Content ([1]; Phosphate buffer of pH 7.4, 0 h) was 1.267 mg/mL and the Content ([1]; Phosphate buffer of pH 7.4, 1 h) was 1.266 mg/mL. For the same compound, the Content ([1]; Phosphate buffer of pH 7.4, 4 h) was 1.266 mg/mL, the Content ([1]; Phosphate buffer of pH 7.4, 8 h) was 1.262 mg/mL and the Content ([1]; Phosphate buffer of pH 7.4, 24 h) was 1.262 mg/mL. The Content ([1]; Phosphate buffer of pH 7.4, 48 h) was 1.249 mg/mL, the Content ([1]; Phosphate buffer of pH 7.4, 72 h) was 1.228 mg/mL and the Content ([1]; Purified water, 0 h) was 1.186 mg/mL. For the same compound, the Content ([1]; Purified water, 1 h) was 1.126 mg/mL, the Content ([1]; Purified water, 4 h) was 1.056 mg/mL and the Content ([1]; Purified water, 8 h) was 1.005 mg/mL. It also gave a Content ([1]; Purified water, 24 h) of 0.918 mg/mL, a Content ([1]; Purified water, 48 h) of 0.860 mg/mL and a Content ([1]; Purified water, 72 h) of 0.810 mg/mL. The “Solution stability, in words” value ([1]; acetate buffer of pH 4.5) was “unstable; also recorded: very unstable”, the “Time the API is stable in solution” value ([1]; buffer of pH 7.4) was “at least 72 hours” and the “Time the API is stable in solution” value ([1]; buffer of pH 10.0) was “at least 72 hours”. The “Time the API is stable in solution” value ([1]; ethanol) was “at least 72 hours”, the “Solution stability, in words” value ([1]; phosphate buffer of pH 6.8) was “unstable; also recorded: less stable” and the “Solution stability, in words” value ([1]; phosphate buffer of pH 7.4) was “stable”. The “Solution stability, in words” value ([1]; purified water) was “unstable; also recorded: less stable”, the “Time the API is stable in solution” value ([1]; solution of pH 6.8) was “at least 24 hours” and the IC50 ([2]; + TH3021 (inhibitor of AKR1C3), (Reference)) was 141 nM. The IC50 ([2]; without TH3021, (Reference)) was < 4.57 nM.
